Experimental data as given in patent US8541588B2, “Sulfonamide derivatives” (Pfizer Limited, priority 2009, dated 2013).

What follows are compounds tested against T1, Nav1.7 (or SCN9A) channel; HEK cells stably transfected with hSCN9A (Homo sapiens, UniProt Q15858) (assay: Nav1.7 block, PatchXpress 7000 automated whole-cell voltage clamp, estimated IC50 (EIC50)). Details: PatchXpress platform; hSCN9A HEK cells held at V1/2 of inactivation; estimated IC50.
T1 construct: expressed in transfected cells
Assay type: cell-based

T1 sequence (Q15858 whole entry): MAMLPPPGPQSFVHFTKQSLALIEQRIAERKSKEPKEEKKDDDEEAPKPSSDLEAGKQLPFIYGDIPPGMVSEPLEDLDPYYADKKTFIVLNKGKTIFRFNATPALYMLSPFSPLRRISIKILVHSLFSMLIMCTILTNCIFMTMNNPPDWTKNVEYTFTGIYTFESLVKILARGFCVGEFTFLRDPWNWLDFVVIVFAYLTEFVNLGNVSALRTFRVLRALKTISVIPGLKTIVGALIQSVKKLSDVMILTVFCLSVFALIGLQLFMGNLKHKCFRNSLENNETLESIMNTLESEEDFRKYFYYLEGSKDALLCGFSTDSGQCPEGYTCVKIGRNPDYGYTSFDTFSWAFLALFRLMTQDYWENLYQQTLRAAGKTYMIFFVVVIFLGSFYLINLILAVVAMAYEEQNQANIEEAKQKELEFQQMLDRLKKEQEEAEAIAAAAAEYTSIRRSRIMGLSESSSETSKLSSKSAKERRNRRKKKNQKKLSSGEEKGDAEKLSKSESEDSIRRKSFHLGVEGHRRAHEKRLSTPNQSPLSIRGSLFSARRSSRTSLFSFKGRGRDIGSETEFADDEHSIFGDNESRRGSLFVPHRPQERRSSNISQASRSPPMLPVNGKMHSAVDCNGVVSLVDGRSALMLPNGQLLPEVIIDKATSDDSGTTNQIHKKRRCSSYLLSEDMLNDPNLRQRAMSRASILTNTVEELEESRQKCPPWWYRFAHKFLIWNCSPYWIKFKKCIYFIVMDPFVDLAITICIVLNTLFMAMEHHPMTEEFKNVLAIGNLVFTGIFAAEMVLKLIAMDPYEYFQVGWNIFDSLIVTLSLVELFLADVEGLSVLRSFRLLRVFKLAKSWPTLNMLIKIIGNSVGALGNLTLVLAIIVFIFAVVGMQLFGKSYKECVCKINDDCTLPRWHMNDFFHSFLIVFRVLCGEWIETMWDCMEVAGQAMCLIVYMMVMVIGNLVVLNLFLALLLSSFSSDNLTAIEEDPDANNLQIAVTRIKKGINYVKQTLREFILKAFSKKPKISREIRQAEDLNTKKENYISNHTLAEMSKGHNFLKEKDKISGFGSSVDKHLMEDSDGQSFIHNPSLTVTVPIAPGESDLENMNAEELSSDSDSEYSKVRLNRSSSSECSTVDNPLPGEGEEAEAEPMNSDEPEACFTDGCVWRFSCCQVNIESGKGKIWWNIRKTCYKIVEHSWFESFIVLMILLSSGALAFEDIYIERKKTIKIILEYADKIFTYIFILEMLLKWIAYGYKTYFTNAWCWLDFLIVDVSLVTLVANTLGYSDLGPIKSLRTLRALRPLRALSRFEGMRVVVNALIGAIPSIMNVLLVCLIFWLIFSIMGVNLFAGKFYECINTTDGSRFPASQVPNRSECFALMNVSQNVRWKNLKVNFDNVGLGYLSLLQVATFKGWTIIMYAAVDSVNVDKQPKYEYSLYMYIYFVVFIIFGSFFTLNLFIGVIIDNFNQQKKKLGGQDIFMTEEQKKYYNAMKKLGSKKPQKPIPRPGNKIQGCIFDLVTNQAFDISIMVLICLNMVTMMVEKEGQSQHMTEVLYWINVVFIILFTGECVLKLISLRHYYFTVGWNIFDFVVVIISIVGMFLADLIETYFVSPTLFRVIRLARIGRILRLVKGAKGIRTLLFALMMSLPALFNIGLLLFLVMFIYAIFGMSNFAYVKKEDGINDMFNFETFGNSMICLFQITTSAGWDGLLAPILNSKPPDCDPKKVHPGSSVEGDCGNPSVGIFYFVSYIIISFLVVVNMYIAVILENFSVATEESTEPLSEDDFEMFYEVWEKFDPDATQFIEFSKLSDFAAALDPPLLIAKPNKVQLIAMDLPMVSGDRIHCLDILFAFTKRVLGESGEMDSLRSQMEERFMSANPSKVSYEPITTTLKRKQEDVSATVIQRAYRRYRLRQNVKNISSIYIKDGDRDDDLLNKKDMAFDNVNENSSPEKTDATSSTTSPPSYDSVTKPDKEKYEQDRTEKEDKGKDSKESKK

In order of rising IC50:
1. N#Cc1cc(S(=O)(=O)Nc2nccs2)ccc1Oc1cc(C(F)(F)F)nn1-c1ccccc1 [Example 168, 3-cyano-4-(1-phenyl-3-(trifluoromethyl)-1H-pyrazol-5-yloxy)-N-(thiazol-2-yl)benzenesulfonamide]  70 nM
2. N#Cc1cc(S(=O)(=O)Nc2nccs2)ccc1Oc1cccc(Cl)c1-c1ccn[nH]1 [Example 199, 4-[3-chloro-2-(2H-pyrazol-3-yl)-phenoxy]-3-cyano-N-thiazol-2-yl-benzenesulfonamide]  110 nM
3. O=S(=O)(Nc1nccs1)c1ccc(Oc2ccc(F)cc2-c2ccn[nH]2)c(F)c1 [Example 218, 3-fluoro-4-(4-fluoro-2-(1H-pyrazol-5-yl)phenoxy)-N-(thiazol-2-yl)benzenesulfonamide]  230 nM
4. O=S(=O)(Nc1ncns1)c1ccc(Oc2cc(C(F)(F)F)nn2-c2ccccc2)c(F)c1 [Example 254, 3-fluoro-4-(2-phenyl-5-trifluoromethyl-2H-pyrazol-3-yloxy)-N-1,2,4-thiadiazol-5-yl-benzenesulfonamide]  340 nM
5. CN(C)c1ncc(Oc2ccc(S(=O)(=O)Nc3ncns3)cc2C#N)c(-c2ccc(F)cc2)n1 [Example 8, 3-cyano-4-{[2-(dimethylamino)-4-(4-fluorophenyl)pyrimidin-5-yl]oxy}-N-1,2,4-thiadiazol-5-ylbenzenesulfonamide]  450 nM
6. O=S(=O)(Nc1nccs1)c1ccc(Oc2ccc(F)cc2-c2ccn[nH]2)cc1F [Example 213, 2-fluoro-4-(4-fluoro-2-(1H-pyrazol-5-yl)phenoxy)-N-(thiazol-2-yl)benzenesulfonamide]  1600 nM
7. O=S(=O)(Nc1nccs1)c1ccc(Oc2ccn(Cc3ccc(Cl)cc3)n2)c(F)c1 [Example 232, 4-[1-(4-chloro-benzyl)-1H-pyrazol-3-yloxy]-3-fluoro-N-thiazol-2-yl-benzenesulfonamide]  1870 nM
8. O=S(=O)(Nc1nncs1)c1ccc(Oc2ccccc2-c2ccccc2)c(F)c1 [Example 251, 4-(biphenyl-2-yloxy)-3-fluoro-N-(1,3,4-thiadiazol-2-yl)benzenesulfonamide]  2540 nM
9. Cc1ccc(Oc2ccc(S(=O)(=O)Nc3ncns3)cc2C#N)c(-c2nn(C)cc2C)c1 [Example 28, 3-cyano-4-(2-(1,4-dimethyl-1H-pyrazol-3-yl)-4-methylphenoxy)-N-(1,2,4-thiadiazol-5-yl)benzenesulfonamide]  2980 nM
10. Cc1cnc(NS(=O)(=O)c2ccc(Oc3ccccc3-c3ccccc3)c(C#N)c2)s1 [Example 100, 4-(biphenyl-2-yloxy)-3-cyano-N-(5-methyl-1,3-thiazol-2-yl)benzenesulfonamide]  3170 nM
11. CN(C)c1ncc(Oc2ccc(S(=O)(=O)Nc3ncns3)cc2C#N)c(-c2ccccc2F)n1 [Example 14, 3-cyano-4-{[2-(dimethylamino)-4-(2-fluorophenyl)pyrimidin-5-yl]oxy}-N-1,2,4-thiadiazol-5-ylbenzenesulfonamide]  4300 nM
12. Cc1cc(CN2CCCC2)cc(C)c1Oc1ccc(S(=O)(=O)Nc2nccs2)cc1F [Example 123, 4-[2,6-dimethyl-4-(pyrrolidin-1-ylmethyl)phenoxy]-3-fluoro-N-1,3-thiazol-2-ylbenzenesulfonamide]  9200 nM
13. O=S(=O)(Nc1nccs1)c1ccc(Oc2ccc(Oc3ccc(F)cc3)cc2)c(F)c1 [Example 124, 3-fluoro-4-[4-(4-fluorophenoxy)phenoxy]-N-1,3-thiazol-2-ylbenzenesulfonamide]  15100 nM
14. O=S(=O)(Nc1nccs1)c1ccc(Oc2ccc(-c3cocn3)cc2)c(F)c1 [Example 121, 3-fluoro-4-[4-(1,3-oxazol-4-yl)phenoxy]-N-1,3-thiazol-2-ylbenzenesulfonamide]  32300 nM
15. N#Cc1cc(S(=O)(=O)Nc2nccs2)ccc1Oc1cc(C2CC2)nn1CC(F)(F)F [Example 194, 3-Cyano-4-[5-cyclopropyl-2-(2,2,2-trifluoro-ethyl)-2H-pyrazol-3-yloxy]-N-thiazol-2-yl-benzenesulfonamide]  36800 nM

For `N#Cc1cc(S(=O)(=O)Nc2ncns2)ccc1Oc1ccc(F)cc1C1CC1` [Example 6, 3-cyano-4-(2-cyclopropyl-4-fluorophenoxy)-N-1,2,4-thiadiazol-5-ylbenzenesulfonamide], the IC50 was over 1000 nM.
Compound `N#Cc1cc(S(=O)(=O)Nc2ccccc2C(F)(F)F)ccc1Oc1ccccc1-c1ccccc1` [Example 111, 4-(biphenyl-2-yloxy)-3-cyano-N-[2-(trifluoromethyl)phenyl]benzenesulfonamide] has an IC50 of over 3000 nM.

Same assay, conditions: estimated IC50; hSCN9A HEK cells, PatchXpress platform; Examples 283-814

In order of rising IC50:
1. Cn1nccc1-c1cc(C(F)(F)F)ccc1Oc1ccc(S(=O)(=O)Nc2ncc(F)s2)cc1C#N [Example 718, 3-cyano-N-(5-fluoro-1,3-thiazol-2-yl)-4-[2-(1-methyl-1H-pyrazol-5-yl)-4-(trifluoromethyl)phenoxy]benzenesulfonamide]  33 nM
2. Nc1ccnc(-c2cc(Cl)ccc2Oc2cc(F)c(S(=O)(=O)Nc3ncns3)cc2Cl)c1 [Example 554, 4-[2-(4-aminopyridin-2-yl)-4-chlorophenoxy]-5-chloro-2-fluoro-N-1,2,4-thiadiazol-5-ylbenzenesulfonamide]  120 nM
3. Nc1ccc(-c2cc(Cl)ccc2Oc2cc(F)c(S(=O)(=O)Nc3ncns3)cc2F)nc1 [Example 411, 4-[2-(5-aminopyridin-2-yl)-4-chlorophenoxy]-2,5-difluoro-N-1,2,4-thiadiazol-5-ylbenzenesulfonamide]  540 nM
4. O=S(=O)(Nc1cscn1)c1ccc(Oc2ccc(Cl)cc2-c2cn[nH]c2)c(Cl)c1 [Example 673, 3-chloro-4-[4-chloro-2-(1H-pyrazol-4-yl)phenoxy]-N-1,3-thiazol-4-ylbenzenesulfonamide]  690 nM
5. Cc1cc(S(=O)(=O)Nc2cscn2)ccc1Oc1ccccc1-c1ccnn1C [Example 628, 3-methyl-4-[2-(1-methyl-1H-pyrazol-5-yl)phenoxy]-N-1,3-thiazol-4-ylbenzenesulfonamide]  1000 nM
6. CCn1nc(C(F)(F)F)cc1-c1ccc(Oc2ccc(S(=O)(=O)Nc3nc(C)ns3)cc2C#N)cc1 [Example 291, 3-cyano-4-{4-[1-ethyl-3-(trifluoromethyl)-1H-pyrazol-5-yl]phenoxy}-N-(3-methyl-1,2,4-thiadiazol-5-yl)benzenesulfonamide]  2500 nM
7. N#Cc1cc(S(=O)(=O)Nc2ccc(F)cn2)ccc1Oc1ccccc1-c1ccccc1 [Example 366, 4-(biphenyl-2-yloxy)-3-cyano-N-(5-fluoropyridin-2-yl)benzenesulfonamide]  4800 nM
8. N#Cc1cc(S(=O)(=O)Nc2cscn2)ccc1Oc1ccc(Cl)cc1-c1ccn(C2CCNCC2)n1 [Example 761, 4-[4-chloro-2-(1-piperidin-4-yl-1H-pyrazol-3-yl)phenoxy]-3-cyano-N-1,3-thiazol-4-ylbenzenesulfonamide]  5400 nM
9. N#Cc1cc(S(=O)(=O)Nc2nccs2)ccc1Oc1cccc(-c2cccc(N)n2)c1 [Example 639, 4-[3-(6-aminopyridin-2-yl)phenoxy]-3-cyano-N-1,3-thiazol-2-ylbenzenesulfonamide]  6900 nM

Work on `Cc1cc(C)n(-c2ccc(Oc3ccc(S(=O)(=O)Nc4nccs4)c(F)c3)cc2)n1` [Example 610, 4-[4-(3,5-Dimethyl-1H-pyrazol-1-yl)phenoxy]-2-fluoro-N-1,3-thiazol-2-ylbenzenesulfonamide] yielded an IC50 of over 1000 nM.

Same assay, conditions: estimated IC50; hSCN9A HEK cells, PatchXpress platform; Examples 815-1040

In order of falling IC50:
1. Cn1nccc1-c1cc(Cl)ccc1Oc1ccc(S(=O)(=O)Nc2cccnn2)cc1C#N [Example 915, 4-[4-chloro-2-(1-methyl-1H-pyrazol-5-yl)phenoxy]-3-cyano-N-pyridazin-3-ylbenzenesulfonamide]  1600 nM
2. N#Cc1ccc(Oc2cc(F)c(S(=O)(=O)Nc3nncs3)cc2Cl)c(-c2ccnnc2)c1 [Example 925, 5-chloro-4-(4-cyano-2-pyridazin-4-ylphenoxy)-2-fluoro-N-1,3,4-thiadiazol-2-ylbenzenesulfonamide]  660 nM
3. N#Cc1cc(S(=O)(=O)Nc2ncns2)ccc1Oc1ccc(F)cc1-c1cc(N)n[nH]1 [Example 826, 4-[2-(3-amino-1H-pyrazol-5-yl)-4-fluorophenoxy]-3-cyano-N-1,2,4-thiadiazol-5-ylbenzenesulfonamide]  300 nM
4. O=S(=O)(Nc1nncs1)c1cc(F)c(Oc2ccc(C(F)(F)F)cc2-c2ccnnc2)cc1F [Example 917, 2,5-difluoro-4-[2-pyridazin-4-yl-4-(trifluoromethyl)phenoxy]-N-1,3,4-thiadiazol-2-ylbenzenesulfonamide]  240 nM
5. N#Cc1cc(S(=O)(=O)Nc2ncns2)ccc1Oc1ccc(Cl)cc1-c1cccc(CC(=O)O)c1 [Example 1000, (5′-chloro-2′-{2-cyano-4-[(1,2,4-thiadiazol-5-ylamino)sulfonyl]phenoxy}biphenyl-3-yl)acetic acid]  130 nM
6. N#Cc1cc(S(=O)(=O)Nc2nncs2)ccc1Oc1ccc(Cl)cc1-c1ccnc(N2CCC2)c1 [Example 919, 4-[2-(2-azetidin-1-ylpyridin-4-yl)-4-chlorophenoxy]-3-cyano-N-1,3,4-thiadiazol-2-ylbenzenesulfonamide]  24 nM
7. N#Cc1cc(S(=O)(=O)Nc2ncns2)ccc1Oc1cc(OC(F)(F)F)ccc1-c1ccnnc1 [Example 957, 3-cyano-4-[2-pyridazin-4-yl-5-(trifluoromethoxy)phenoxy]-N-1,2,4-thiadiazol-5-ylbenzenesulfonamide]  22 nM
8. Nc1n[nH]cc1-c1cc(Cl)ccc1Oc1cc(F)c(S(=O)(=O)Nc2ncccn2)cc1Cl [Example 1019, 4-[2-(3-amino-1H-pyrazol-4-yl)-4-chlorophenoxy]-5-chloro-2-fluoro-N-pyrimidin-2-ylbenzenesulfonamide]  22 nM
9. N#Cc1cc(S(=O)(=O)Nc2ncns2)ccc1Oc1ccc(C(F)(F)F)cc1-c1ccncc1 [Example 960, 3-cyano-4-[2-pyridin-4-yl-4-(trifluoromethyl)phenoxy]-N-1,2,4-thiadiazol-5-ylbenzenesulfonamide]  4 nM
10. N#Cc1cc(S(=O)(=O)Nc2ncns2)ccc1Oc1cc(F)c(C(F)(F)F)cc1-c1ccnnc1 [Example 1035, 3-Cyano-4-[5-fluoro-2-pyridazin-4-yl-4-(trifluoromethyl)phenoxy]-N-1,2,4-thiodiazol-5-ylbenzenesulfonamide]  3.8 nM
